Assays:
[1] = target: Tyrosine-protein kinase Fyn (Homo sapiens) (UniProt P06241)
[2] = target: Serine/threonine-protein kinase ULK1 (Homo sapiens) (UniProt O75385)
[3] = target: Dual specificity protein kinase CLK1 (Homo sapiens) (UniProt P49759)
[4] = target: 5'-AMP-activated protein kinase catalytic subunit alpha-1 (Homo sapiens) (UniProt Q13131)
[5] = target: Transient receptor potential cation channel subfamily M member 6 (Homo sapiens) (UniProt Q9BX84)
[6] = target: Tyrosine-protein kinase BTK (Homo sapiens) (UniProt Q06187)
[7] = test system: Phosphatidylinositol 4,5-bisphosphate 3-kinase catalytic subunit alpha isoform (Homo sapiens), P42336 [H1047Y]
[8] = target: Phosphatidylinositol 3-kinase catalytic subunit type 3 (Homo sapiens) (UniProt Q8NEB9)
[9] = target: Phosphatidylinositol 5-phosphate 4-kinase type-2 gamma (Homo sapiens) (UniProt Q8TBX8)
[10] = target: Cyclin-dependent kinase 17 (Homo sapiens) (UniProt Q00537)
[11] = target: Aurora kinase C (Homo sapiens) (UniProt Q9UQB9)
[12] = target: Serine/threonine-protein kinase tousled-like 2 (Homo sapiens) (UniProt Q86UE8)
[13] = target: Mitogen-activated protein kinase kinase kinase kinase 1 (Homo sapiens) (UniProt Q92918)
[14] = target: Aurora kinase A (Homo sapiens) (UniProt O14965)
[15] = target: Protein kinase C theta type (Homo sapiens) (UniProt Q04759)
[16] = target: Serine/threonine-protein kinase PknB (Mycobacterium tuberculosis) (UniProt P9WI81)
[17] = target: Serine/threonine-protein kinase 17B (Homo sapiens) (UniProt O94768)
[18] = target: Inhibitor of nuclear factor kappa-B kinase subunit alpha (Homo sapiens) (UniProt O15111)
[19] = target: Receptor tyrosine-protein kinase erbB-2 (Homo sapiens) (UniProt P04626)
[20] = target: Receptor-interacting serine/threonine-protein kinase 2 (Homo sapiens) (UniProt O43353)
[21] = test system: Fibroblast growth factor receptor 3 (Homo sapiens), P22607 [G697C]
[22] = target: Mitogen-activated protein kinase 11 (Homo sapiens) (UniProt Q15759)
[23] = test system: Proto-oncogene tyrosine-protein kinase receptor Ret (Homo sapiens), P07949 [V804L]
[24] = target: TRAF2 and NCK-interacting protein kinase (Homo sapiens) (UniProt Q9UKE5)
[25] = target: Serine/threonine-protein kinase PLK2 (Homo sapiens) (UniProt Q9NYY3)
[26] = target: NT-3 growth factor receptor (Homo sapiens) (UniProt Q16288)
[27] = target: Mitogen-activated protein kinase kinase kinase kinase 4 (Homo sapiens) (UniProt O95819)
[28] = target: Serine/threonine-protein kinase 17A (Homo sapiens) (UniProt Q9UEE5)
[29] = target: Casein kinase I isoform gamma-2 (Homo sapiens) (UniProt P78368)
[30] = target: Tyrosine-protein kinase Blk (Homo sapiens) (UniProt P51451)
[31] = target: Mitogen-activated protein kinase 6 (Homo sapiens) (UniProt Q16659)
[32] = target: Tyrosine-protein kinase ZAP-70 (Homo sapiens) (UniProt P43403)
[33] = test system: Serine/threonine-protein kinase B-raf (Homo sapiens), P15056 [V600E]
[34] = target: Sodium-dependent dopamine transporter (Homo sapiens) (UniProt Q01959); settings: Compound concentration 10.0 uM
[35] = target: Tyrosine-protein kinase JAK2 (Homo sapiens) (UniProt O60674)
[36] = target: Calcium/calmodulin-dependent protein kinase type IV (Homo sapiens) (UniProt Q16566)
[37] = target: Receptor-type tyrosine-protein kinase FLT3 (Homo sapiens) (UniProt P36888)
[38] = target: Muscarinic acetylcholine receptor M3 (Homo sapiens) (UniProt P20309); settings: Compound concentration 10.0 uM
[39] = target: Serine/threonine-protein kinase 33 (Homo sapiens) (UniProt Q9BYT3)
Rattus norvegicus = organism: Rattus norvegicus; settings: Compound concentration 10.0 uM
[40] = target: Tyrosine-protein kinase ITK/TSK (Homo sapiens) (UniProt Q08881)
[41] = target: Receptor-type tyrosine-protein kinase FLT3 (Homo sapiens) (UniProt P36888); remark: listed apart in the source
[42] = target: Cyclin-dependent kinase 15 (Homo sapiens) (UniProt Q96Q40)
[43] = target: Phosphatidylinositol 4,5-bisphosphate 3-kinase catalytic subunit delta isoform (Homo sapiens) (UniProt O00329)
[44] = target: Serine/threonine-protein kinase OSR1 (Homo sapiens) (UniProt O95747)
[45] = Compound concentration 1000.0 nM
[46] = Compound concentration 100.0 nM

Receptor-type tyrosine-protein kinase FLT3 (Homo sapiens), sequence (P36888 whole entry): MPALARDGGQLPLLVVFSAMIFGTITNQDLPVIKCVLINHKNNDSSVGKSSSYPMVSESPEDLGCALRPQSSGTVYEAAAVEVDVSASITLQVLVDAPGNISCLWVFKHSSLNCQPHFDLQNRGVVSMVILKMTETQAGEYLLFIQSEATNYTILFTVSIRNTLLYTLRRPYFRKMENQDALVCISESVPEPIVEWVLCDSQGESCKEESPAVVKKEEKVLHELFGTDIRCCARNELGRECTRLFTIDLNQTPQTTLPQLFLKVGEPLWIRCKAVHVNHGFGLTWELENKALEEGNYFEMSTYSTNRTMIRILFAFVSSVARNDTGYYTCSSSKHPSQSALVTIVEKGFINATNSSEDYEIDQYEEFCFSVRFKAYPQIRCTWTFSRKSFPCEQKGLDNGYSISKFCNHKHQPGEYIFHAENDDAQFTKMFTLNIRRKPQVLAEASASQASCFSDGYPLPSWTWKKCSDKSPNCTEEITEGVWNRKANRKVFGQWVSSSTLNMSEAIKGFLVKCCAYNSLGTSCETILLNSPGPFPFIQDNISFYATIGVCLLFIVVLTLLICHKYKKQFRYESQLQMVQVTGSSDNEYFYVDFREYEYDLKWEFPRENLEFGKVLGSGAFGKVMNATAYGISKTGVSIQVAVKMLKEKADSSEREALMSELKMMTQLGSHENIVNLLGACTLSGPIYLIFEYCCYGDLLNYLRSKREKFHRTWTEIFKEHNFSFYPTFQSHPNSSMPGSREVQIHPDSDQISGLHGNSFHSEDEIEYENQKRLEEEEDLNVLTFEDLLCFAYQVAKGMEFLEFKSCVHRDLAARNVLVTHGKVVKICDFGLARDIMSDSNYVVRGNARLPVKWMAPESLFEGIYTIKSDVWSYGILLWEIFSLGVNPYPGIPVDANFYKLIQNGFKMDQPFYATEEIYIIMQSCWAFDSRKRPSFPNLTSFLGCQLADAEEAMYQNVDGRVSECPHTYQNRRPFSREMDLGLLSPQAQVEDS
Serine/threonine-protein kinase 33 (Homo sapiens), sequence (Q9BYT3 whole entry, looked up): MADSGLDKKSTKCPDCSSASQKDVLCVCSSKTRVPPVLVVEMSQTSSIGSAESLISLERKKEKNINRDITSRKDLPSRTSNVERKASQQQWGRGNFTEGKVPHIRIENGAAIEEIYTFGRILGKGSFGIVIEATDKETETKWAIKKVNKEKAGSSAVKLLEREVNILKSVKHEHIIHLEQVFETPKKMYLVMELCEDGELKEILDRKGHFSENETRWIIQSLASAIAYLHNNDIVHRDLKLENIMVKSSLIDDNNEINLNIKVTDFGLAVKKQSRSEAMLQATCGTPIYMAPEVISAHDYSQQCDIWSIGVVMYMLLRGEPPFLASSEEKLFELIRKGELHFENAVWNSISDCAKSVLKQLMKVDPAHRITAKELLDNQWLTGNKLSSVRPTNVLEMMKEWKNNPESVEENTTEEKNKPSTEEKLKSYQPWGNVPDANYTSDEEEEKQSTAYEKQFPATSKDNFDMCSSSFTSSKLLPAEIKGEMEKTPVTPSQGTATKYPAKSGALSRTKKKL
Tyrosine-protein kinase Blk (Homo sapiens), sequence (P51451 2-505 limits assumed): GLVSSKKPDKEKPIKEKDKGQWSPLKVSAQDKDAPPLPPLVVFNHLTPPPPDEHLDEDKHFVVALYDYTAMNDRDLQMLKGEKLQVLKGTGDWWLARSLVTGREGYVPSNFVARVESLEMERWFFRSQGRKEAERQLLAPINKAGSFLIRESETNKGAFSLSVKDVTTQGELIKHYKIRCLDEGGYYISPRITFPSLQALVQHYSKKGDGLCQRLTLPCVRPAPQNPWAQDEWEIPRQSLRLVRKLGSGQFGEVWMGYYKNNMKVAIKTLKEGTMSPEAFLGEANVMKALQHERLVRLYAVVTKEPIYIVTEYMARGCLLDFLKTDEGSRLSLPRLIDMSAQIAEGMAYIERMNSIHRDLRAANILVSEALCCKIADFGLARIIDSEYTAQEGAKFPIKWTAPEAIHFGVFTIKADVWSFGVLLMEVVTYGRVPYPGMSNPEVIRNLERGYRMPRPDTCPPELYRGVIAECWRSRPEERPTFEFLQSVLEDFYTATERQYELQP
Tyrosine-protein kinase ITK/TSK (Homo sapiens), sequence (Q08881 whole entry): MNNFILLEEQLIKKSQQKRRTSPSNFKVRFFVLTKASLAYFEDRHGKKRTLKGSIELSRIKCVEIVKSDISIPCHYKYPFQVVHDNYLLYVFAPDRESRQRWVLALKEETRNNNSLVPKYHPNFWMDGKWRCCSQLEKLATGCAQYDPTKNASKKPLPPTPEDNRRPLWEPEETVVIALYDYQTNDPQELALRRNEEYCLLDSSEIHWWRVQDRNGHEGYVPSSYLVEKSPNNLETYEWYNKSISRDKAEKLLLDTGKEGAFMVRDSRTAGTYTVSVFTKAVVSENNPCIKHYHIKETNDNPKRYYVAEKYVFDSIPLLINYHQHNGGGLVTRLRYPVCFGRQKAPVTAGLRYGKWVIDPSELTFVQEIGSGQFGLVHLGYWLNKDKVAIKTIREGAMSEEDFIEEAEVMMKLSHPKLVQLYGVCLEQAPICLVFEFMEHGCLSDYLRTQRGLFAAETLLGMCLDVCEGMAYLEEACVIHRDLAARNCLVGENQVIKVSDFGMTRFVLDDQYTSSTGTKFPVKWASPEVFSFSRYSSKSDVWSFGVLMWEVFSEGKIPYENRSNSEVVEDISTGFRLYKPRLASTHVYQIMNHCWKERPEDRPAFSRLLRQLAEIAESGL
Sodium-dependent dopamine transporter (Homo sapiens), sequence (Q01959 whole entry): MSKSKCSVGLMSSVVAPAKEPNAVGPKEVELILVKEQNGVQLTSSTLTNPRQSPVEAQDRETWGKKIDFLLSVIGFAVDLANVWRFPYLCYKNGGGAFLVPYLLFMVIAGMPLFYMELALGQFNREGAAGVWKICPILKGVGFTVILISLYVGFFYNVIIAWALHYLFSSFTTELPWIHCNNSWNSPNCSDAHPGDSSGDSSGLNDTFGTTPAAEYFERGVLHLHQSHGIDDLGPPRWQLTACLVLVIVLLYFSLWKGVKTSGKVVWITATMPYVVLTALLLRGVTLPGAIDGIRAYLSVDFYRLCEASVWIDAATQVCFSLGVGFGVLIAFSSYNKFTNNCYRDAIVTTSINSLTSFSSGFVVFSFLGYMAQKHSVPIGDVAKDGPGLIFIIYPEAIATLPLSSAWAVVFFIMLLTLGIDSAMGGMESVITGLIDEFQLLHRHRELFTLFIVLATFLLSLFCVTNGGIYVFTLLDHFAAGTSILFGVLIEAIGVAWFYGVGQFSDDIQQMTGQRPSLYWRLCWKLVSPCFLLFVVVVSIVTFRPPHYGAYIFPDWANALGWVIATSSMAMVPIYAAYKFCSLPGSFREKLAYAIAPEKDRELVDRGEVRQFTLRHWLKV
Serine/threonine-protein kinase OSR1 (Homo sapiens), sequence (O95747 2-527 limits assumed): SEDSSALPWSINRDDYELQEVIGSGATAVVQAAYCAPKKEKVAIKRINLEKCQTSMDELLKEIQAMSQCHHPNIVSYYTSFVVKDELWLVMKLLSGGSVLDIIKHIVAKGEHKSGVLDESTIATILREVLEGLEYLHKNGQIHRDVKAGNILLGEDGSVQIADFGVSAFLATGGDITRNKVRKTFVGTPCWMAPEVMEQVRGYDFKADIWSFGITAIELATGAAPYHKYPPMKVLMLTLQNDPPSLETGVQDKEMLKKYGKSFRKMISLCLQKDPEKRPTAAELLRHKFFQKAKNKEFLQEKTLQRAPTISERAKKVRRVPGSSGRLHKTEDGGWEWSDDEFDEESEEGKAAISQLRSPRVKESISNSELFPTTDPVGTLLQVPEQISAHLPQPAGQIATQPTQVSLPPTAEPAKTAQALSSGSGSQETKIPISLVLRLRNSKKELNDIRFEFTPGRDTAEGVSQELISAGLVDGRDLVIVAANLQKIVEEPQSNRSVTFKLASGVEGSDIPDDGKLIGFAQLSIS
Tyrosine-protein kinase ZAP-70 (Homo sapiens), sequence (P43403 whole entry): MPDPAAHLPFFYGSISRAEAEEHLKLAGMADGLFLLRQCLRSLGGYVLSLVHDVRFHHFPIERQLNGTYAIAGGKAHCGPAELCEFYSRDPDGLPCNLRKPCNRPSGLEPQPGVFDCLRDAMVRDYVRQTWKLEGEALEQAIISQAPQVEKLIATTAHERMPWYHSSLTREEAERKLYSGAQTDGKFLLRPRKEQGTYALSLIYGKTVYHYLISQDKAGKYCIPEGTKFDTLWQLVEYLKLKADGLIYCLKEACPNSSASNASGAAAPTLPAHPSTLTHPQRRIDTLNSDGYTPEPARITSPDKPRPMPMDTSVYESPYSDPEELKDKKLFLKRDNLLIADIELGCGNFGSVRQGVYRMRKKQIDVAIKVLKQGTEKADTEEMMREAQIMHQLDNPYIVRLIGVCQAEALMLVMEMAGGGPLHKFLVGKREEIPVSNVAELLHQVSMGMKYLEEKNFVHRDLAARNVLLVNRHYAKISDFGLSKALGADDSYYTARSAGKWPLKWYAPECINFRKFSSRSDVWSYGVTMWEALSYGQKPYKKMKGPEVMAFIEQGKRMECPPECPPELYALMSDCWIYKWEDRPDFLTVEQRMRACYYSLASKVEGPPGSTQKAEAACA
Serine/threonine-protein kinase 17A (Homo sapiens), sequence (Q9UEE5 whole entry, canonical isoform): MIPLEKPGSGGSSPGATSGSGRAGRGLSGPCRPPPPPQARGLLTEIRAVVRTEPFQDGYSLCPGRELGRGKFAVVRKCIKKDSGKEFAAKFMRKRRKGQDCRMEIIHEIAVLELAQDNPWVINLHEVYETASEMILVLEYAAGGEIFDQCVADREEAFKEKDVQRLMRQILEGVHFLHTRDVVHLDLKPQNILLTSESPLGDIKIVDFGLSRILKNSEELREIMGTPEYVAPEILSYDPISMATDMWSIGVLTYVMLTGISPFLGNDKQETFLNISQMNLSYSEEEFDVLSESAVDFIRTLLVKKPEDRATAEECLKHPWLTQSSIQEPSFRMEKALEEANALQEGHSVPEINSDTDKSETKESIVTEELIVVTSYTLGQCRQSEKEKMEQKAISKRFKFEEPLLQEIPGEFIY

C[C@H](NC(=O)Nc1cc2[nH]ncc2c(CO)n1)c1ccccn1 [ERKi-NC]
inactive: residual activity [1, 45] 70.9% | residual activity [2, 45] 100% | residual activity [3, 45] 94.4% | residual activity [4, 45] 100% | residual activity [5, 45] 92.7% | residual activity [6, 45] 92% | residual activity [8, 45] 97% | residual activity [9, 45] 100% | residual activity [10, 45] 78% | residual activity [11, 45] 100% | residual activity [12, 45] 88.4% | residual activity [13, 45] 93.8% | residual activity [14, 45] 100% | residual activity [15, 45] 100% | residual activity [16, 45] 100% | residual activity [17, 45] 100% | residual activity [18, 45] 100% | residual activity [19, 45] 100% | residual activity [20, 45] 77% | residual activity [21, 45] 100% | residual activity [22, 45] 100% | residual activity [23, 45] 100% | residual activity [24, 45] 100% | residual activity [25, 45] 100% | residual activity [26, 45] 85.4% | residual activity [27, 45] 100% | residual activity [28, 45] 100% | residual activity [29, 45] 100% | residual activity [30, 45] 100% | residual activity [31, 45] 100% | residual activity [32, 45] 77.9% | residual activity [33, 45] 100% | inhibition [34] 4.79% | residual activity [35, 45] 100% | residual activity [36, 45] 96.4% | residual activity [37, 45] 100% | inhibition [38] -1.84% | residual activity [39, 45] 100% | inhibition (Rattus norvegicus) -1.65% | residual activity [40, 45] 100% | residual activity [41, 45] 100% | residual activity [42, 45] 97.4% | residual activity [43, 45] 100% | residual activity [44, 45] 100%
active: residual activity [7, 45] 34.6%

C[C@@H](NC(=O)Nc1cc2[nH]ncc2c(CO)n1)c1ccccc1 [ERKi]
inactive: residual activity [1, 46] 95.2% | residual activity [3, 46] 72.6% | residual activity [4, 46] 91% | residual activity [5, 46] 96.4% | residual activity [6, 46] 100% | residual activity [7, 46] 75.7% | residual activity [8, 46] 71.2% | residual activity [9, 46] 95% | residual activity [10, 46] 95.9% | residual activity [11, 46] 100% | residual activity [12, 46] 86.9% | residual activity [13, 46] 96.9% | residual activity [14, 46] 82% | residual activity [15, 46] 100% | residual activity [16, 46] 85% | residual activity [17, 46] 95.8% | residual activity [18, 46] 100% | residual activity [19, 46] 100% | residual activity [20, 46] 90.3% | residual activity [21, 46] 100% | residual activity [22, 46] 100% | residual activity [23, 46] 100% | residual activity [24, 46] 95.8% | residual activity [25, 46] 95.1% | residual activity [26, 46] 76.7% | residual activity [27, 46] 88.5% | residual activity [28, 46] 88% | residual activity [29, 46] 100% | residual activity [30, 46] 100% | residual activity [31, 46] 95.2% | residual activity [32, 46] 95.8% | residual activity [33, 46] 100% | inhibition [34] 46.5% | residual activity [35, 46] 93.7% | residual activity [36, 46] 100% | residual activity [37, 46] 85.3% | inhibition [38] -5.17% | residual activity [39, 46] 100% | inhibition (Rattus norvegicus) 8.66% | residual activity [40, 46] 83.2% | residual activity [41, 46] 91.6% | residual activity [42, 46] 80.6% | residual activity [43, 46] 81.9% | residual activity [44, 46] 69.8%
active: residual activity [2, 46] 48.6%

Reference: ChEMBL document CHEMBL4507286 (2021)
